In publication PMC7872314, “Modeling Bioavailable Concentrations in Zebrafish Cell Lines and Embryos Increases the Correlation of Toxicity Potencies across Test Systems” (Environmental Science & Technology, 2020):
Where two headings read alike, the source gives them in different places.

How the values were obtained:
[1] = system: ZF4 (fibroblasts) cell line; test: MTS assay (MTS/BCA multiplex), NAD(P)H metabolism; format: cell-based, zebrafish (Danio rerio); details: Danio rerio, Fibroblast
[2] = system: ZFL (hepatocytes) cell line; test: cells; format: cell-based, zebrafish (Danio rerio); details: Danio rerio, Hepatocyte
[3] = system: ZF4 (fibroblasts) cell line; test: BCA assay (MTS/BCA multiplex), protein amount; format: cell-based, zebrafish (Danio rerio); details: Danio rerio, Fibroblast
[4] = system: ZFL (hepatocytes) cell line; test: cells; format: cell-based, zebrafish (Danio rerio); details: Danio rerio, Hepatocyte; remark: listed apart in the source
[5] = system: ZF4 (fibroblasts) cell line; test: ATP assay (ATP/LDH multiplex), ATP metabolism; format: cell-based, zebrafish (Danio rerio); details: Danio rerio, Fibroblast
[6] = system: ZFL (hepatocytes) cell line; test: cells; format: cell-based, zebrafish (Danio rerio); details: Danio rerio, Hepatocyte; remark: listed apart in the source
[7] = system: ZF4 (fibroblasts) cell line; test: alamarBlue (AB) endpoint of AB/CFDA/NR multiplex, cellular respiration; format: cell-based, zebrafish (Danio rerio); details: Danio rerio, Fibroblast
[8] = system: ZFL (hepatocytes) cell line; test: cells; format: cell-based, zebrafish (Danio rerio); details: Danio rerio, Hepatocyte; remark: listed apart in the source
[9] = system: ZF4 (fibroblasts) cell line; test: CFDA endpoint of AB/CFDA/NR multiplex, membrane stability; format: cell-based, zebrafish (Danio rerio); details: Danio rerio, Fibroblast
[10] = system: ZFL (hepatocytes) cell line; test: cells; format: cell-based, zebrafish (Danio rerio); details: Danio rerio, Hepatocyte; remark: listed apart in the source
[11] = system: ZF4 (fibroblasts) cell line; test: Neutral red, absorbance (NRa), AB/CFDA/NR multiplex, lysosome stability; format: cell-based, zebrafish (Danio rerio); details: Danio rerio, Fibroblast
[12] = system: ZFL (hepatocytes) cell line; test: cells; format: cell-based, zebrafish (Danio rerio); details: Danio rerio, Hepatocyte; remark: listed apart in the source
[13] = system: ZF4 (fibroblasts) cell line; test: Neutral red, fluorescence (NRf), AB/CFDA/NR multiplex, lysosome stability; format: cell-based, zebrafish (Danio rerio); details: Danio rerio, Fibroblast
[14] = system: ZFL (hepatocytes) cell line; test: cells; format: cell-based, zebrafish (Danio rerio); details: Danio rerio, Hepatocyte; remark: listed apart in the source
[15] = system: zebrafish embryos; test: animal or person; format: in vivo, zebrafish (Danio rerio); details: for EC50: Danio rerio
[16] = system: ZF4 and ZFL cell lines; test: Cytotoxicity assays, all endpoints, both cell lines (mean/range); format: cell-based, zebrafish (Danio rerio); details: 48 h, mean of all cytotoxicity endpoints (without LDH) in ZF4 and ZFL
[17] = system: zebrafish cell lines vs zebrafish embryo; test: Potency ratios IC50;x/EC50;x (cytotoxicity assays vs mFET); parameters: species or system zebrafish (Danio rerio); details: median over cytotoxicity endpoints, nominal, 48 h cells / 48 hpf mFET
[18] = system: zebrafish embryos; parameters: method as in earlier work; details: nominal, cited from earlier work
[19] = system: diverse mammalian cell assay results; parameters: method as in https://comptox.epa.gov/dashboard/; details: COMPTOX; ref https://comptox.epa.gov/dashboard/; read-out: median AC50; cited from earlier work
[20] = ref Comptox, PubChem or DrugBank; cited from earlier work

CO[C@H]1C[C@H](O[C@H]2[C@H](C)O[C@@H](O[C@@H]3/C(C)=C/C[C@@H]4C[C@@H](C[C@]5(C=C[C@H](C)[C@@H](C6CCCCC6)O5)O4)OC(=O)[C@@H]4C=C(C)[C@@H](O)[C@H]5OC/C(=C\C=C\[C@@H]3C)[C@]54O)C[C@@H]2OC)O[C@@H](C)[C@@H]1O [Doramectin, doramectin]
IC50 ([1]; MTS - ZF4, log10 of IC50, read-out: LogIC50 (converted)): 12.3 µM | IC50 ([1]; MTS - ZF4, read-out: IC50): 12.3 µM | IC50 ([1]; ZF4, 48 h exposure, nominal, log10, read-out: logIC50 (log10 IC50;nom) MTS (converted)): 12.3 µM | IC50 ([1]; ZF4, 48 h exposure, nominal, read-out: IC50;nom MTS): 12.3 µM | IC50 ([2]; MTS - ZFL, log10 of IC50, read-out: LogIC50 (converted)): 9.41 µM | IC50 ([2]; MTS - ZFL, read-out: IC50): 9.42 µM | IC50 ([2]; ZFL, 48 h exposure, nominal, log10, read-out: logIC50 (log10 IC50;nom) MTS (converted)): 9.33 µM | IC50 ([2]; ZFL, 48 h exposure, nominal, read-out: IC50;nom MTS): 9.42 µM | IC50 ([3]; BCA - ZF4, log10 of IC50, read-out: LogIC50 (converted)): 9.03 µM | IC50 ([3]; BCA - ZF4, read-out: IC50): 9.03 µM | IC50 ([3]; ZF4, 48 h exposure, nominal, log10, read-out: logIC50 (log10 IC50;nom) BCA (converted)): 9.12 µM | IC50 ([3]; ZF4, 48 h exposure, nominal, read-out: IC50;nom BCA): 9.03 µM | IC50 ([4]; BCA - ZFL, log10 of IC50, read-out: LogIC50 (converted)): 4.44 µM | IC50 ([4]; BCA - ZFL, read-out: IC50): 4.44 µM | IC50 ([4]; ZFL, 48 h exposure, nominal, log10, read-out: logIC50 (log10 IC50;nom) BCA (converted)): 4.47 µM | IC50 ([4]; ZFL, 48 h exposure, nominal, read-out: IC50;nom BCA): 4.44 µM | IC50 ([5]; ATP - ZF4, log10 of IC50, read-out: LogIC50 (converted)): 4.38 µM | IC50 ([5]; ATP - ZF4, read-out: IC50): 4.38 µM | IC50 ([5]; ZF4, 48 h exposure, nominal, log10, read-out: logIC50 (log10 IC50;nom) ATP (converted)): 4.37 µM | IC50 ([5]; ZF4, 48 h exposure, nominal, read-out: IC50;nom ATP): 4.38 µM | IC50 ([6]; ATP - ZFL, log10 of IC50, read-out: LogIC50 (converted)): 15.9 µM | IC50 ([6]; ATP - ZFL, read-out: IC50): 15.9 µM | IC50 ([6]; ZFL, 48 h exposure, nominal, log10, read-out: logIC50 (log10 IC50;nom) ATP (converted)): 15.8 µM | IC50 ([6]; ZFL, 48 h exposure, nominal, read-out: IC50;nom ATP): 15.9 µM | IC50 ([7]; AB - ZF4, log10 of IC50, read-out: LogIC50 (converted)): 17.1 µM | IC50 ([7]; AB - ZF4, read-out: IC50): 17.1 µM | IC50 ([7]; ZF4, 48 h exposure, nominal, log10, read-out: logIC50 (log10 IC50;nom) AB (converted)): 17 µM | IC50 ([7]; ZF4, 48 h exposure, nominal, read-out: IC50;nom AB): 17.1 µM | IC50 ([8]; AB - ZFL, log10 of IC50, read-out: LogIC50 (converted)): 6.74 µM | IC50 ([8]; AB - ZFL, read-out: IC50): 6.74 µM | IC50 ([8]; ZFL, 48 h exposure, nominal, log10, read-out: logIC50 (log10 IC50;nom) AB (converted)): 6.76 µM | IC50 ([8]; ZFL, 48 h exposure, nominal, read-out: IC50;nom AB): 6.74 µM | IC50 ([9]; CFDA - ZF4, log10 of IC50, read-out: LogIC50 (converted)): 16.8 µM | IC50 ([9]; CFDA - ZF4, read-out: IC50): 16.8 µM | IC50 ([9]; ZF4, 48 h exposure, nominal, log10, read-out: logIC50 (log10 IC50;nom) CFDA (converted)): 17 µM | IC50 ([9]; ZF4, 48 h exposure, nominal, read-out: IC50;nom CFDA): 16.8 µM | IC50 ([10]; CFDA - ZFL, log10 of IC50, read-out: LogIC50 (converted)): 9.33 µM | IC50 ([10]; CFDA - ZFL, read-out: IC50): 9.33 µM | IC50 ([10]; ZFL, 48 h exposure, nominal, log10, read-out: logIC50 (log10 IC50;nom) CFDA (converted)): 9.33 µM | IC50 ([10]; ZFL, 48 h exposure, nominal, read-out: IC50;nom CFDA): 9.33 µM | IC50 ([11]; NR-abs - ZF4, log10 of IC50, read-out: LogIC50 (converted)): 14.6 µM | IC50 ([11]; NR-abs - ZF4, read-out: IC50): 14.6 µM | IC50 ([11]; ZF4, 48 h exposure, nominal, log10, read-out: logIC50 (log10 IC50;nom) NRa (converted)): 14.5 µM | IC50 ([11]; ZF4, 48 h exposure, nominal, read-out: IC50;nom NRa): 14.6 µM | IC50 ([11]; ZF4 cell line, NRa endpoint, nominal, read-out: IC50;nom): 13.1 µg/mL | IC50 ([12]; NR-abs - ZFL, log10 of IC50, read-out: LogIC50 (converted)): 4.52 µM | IC50 ([12]; NR-abs - ZFL, read-out: IC50): 4.52 µM | IC50 ([12]; ZFL, 48 h exposure, nominal, log10, read-out: logIC50 (log10 IC50;nom) NRa (converted)): 4.57 µM | IC50 ([12]; ZFL, 48 h exposure, nominal, read-out: IC50;nom NRa): 4.52 µM | IC50 ([13]; NR-fluo - ZF4, log10 of IC50, read-out: LogIC50 (converted)): 15.3 µM | IC50 ([13]; NR-fluo - ZF4, read-out: IC50): 15.3 µM | IC50 ([13]; ZF4, 48 h exposure, nominal, log10, read-out: logIC50 (log10 IC50;nom) NRf (converted)): 15.5 µM | IC50 ([13]; ZF4, 48 h exposure, nominal, read-out: IC50;nom NRf): 15.3 µM | IC50 ([14]; NR-fluo - ZFL, log10 of IC50, read-out: LogIC50 (converted)): 5.08 µM | IC50 ([14]; NR-fluo - ZFL, read-out: IC50): 5.08 µM | IC50 ([14]; ZFL, 48 h exposure, nominal, log10, read-out: logIC50 (log10 IC50;nom) NRf (converted)): 5.13 µM | IC50 ([14]; ZFL, 48 h exposure, nominal, read-out: IC50;nom NRf): 5.08 µM | difference in toxicity (EC50;nom) between 48 hpf and 144 hpf ([15]; 48 hpf time point less sensitive than 144 hpf): marginally more toxic | log EC50;nom (mFET) ([15]; 48 hpf, nominal, log10, listed as Dor): -5.914 M | EC50 ([15]; 48 hpf, nominal, log10, read-out: log EC50;nom (mFET) (converted)): 1.23 µM | EC50 ([15]; 48 hpf, nominal, read-out: EC50;nom (embryo)): 1.1 µg/mL | EC50 ([15]; read-out: EC50 48hpf): 1.22 µM | EC50 ([15]; read-out: EC50;nom (mFET)): 1.22 µM | IC50 ([16]; Danio rerio, log10, read-out: Mean log IC50nom (converted)): 9.12 µM | Mean log IC50nom ([16]; log10, listed as Dor): -5.037 M | potency ratio IC50;nom/EC50;nom (median) [17]: 7.68 | EC50 ([18]; 144 hpf, converted): 0.645 µM | logEC50 144 hpf ([18]; log10): -6.19 M | AC50 [19]: 1.87 µM | BCF [20]: 5.26 | Physiological charge [20]: 0 | logKoa [20]: 9.63 | logKow [20]: 5.24 | pKa (Strongest Acidic) [20]: 12.47 | pKa (Strongest Basic) [20]: -3.4 | w_solubility (water solubility) [20]: 39.5 µM
